Laboratory results as given in US8129367B2, “Compounds for the treatment of Hepatitis C” (Bristol-Myers Squibb Company, priority 2007, dated 2012).

Key:
HCV NS5B = target: T1, HCV NS5B (Hepatitis C virus genotype 1b, UniProt Q9WMX2); experiment: HCV NS5B RdRp enzyme assay; format: biochemical; details: HCV NS5B RdRp genotype 1b enzyme
T1 construct: The protein was expressed with an 18 amino acid C-terminal truncation to enhance the solubility; made in house; host or cells: E. coli BL21(DE3)
Description: HCV NS5B RdRp cloning, expression, and purification. The cDNA encoding the NS5B protein of HCV, genotype 1b, was cloned into the pET21a expression vector. The protein was expressed with an 18 amino acid C-terminal truncation to enhance the solubility. The E. coli competent cell line BL21(DE3) was used for expression of the protein. Cultures were grown at 37° C. for ˜4 hours until the cultures reached an optical density of 2.0 at 600 nm. The cultures were cooled to 20° C. and induced with 1 mM IPTG. Fresh ampicillin was added to a final concentration of 50 μg/ml and the cells were grown overnight at 20° C.
Cell pellets (3 L) were lysed for purification to yield 15-24 mgs of purified NS5B. The lysis buffer consisted of 20 mM Tris-HCl, pH 7.4, 500 mM NaCl, 0.5% triton X-100, 1 mM DTT, 1 mM EDTA, 20% glycerol, 0.5 mg/ml lysozyme, 10 mM MgCl2, 15 ug/ml deoxyribonuclease I, and Complete™ protease inhibitor tablets (Roche). After addition of the lysis buffer, frozen cell pellets were resuspended using a tissue homogenizer. To reduce the viscosity of the sample, aliquots of the lysate were sonicated on ice using a microtip attached to a Branson sonicator. The sonicated lysate was centrifuged at 100,000×g for 1 hr at 4° C. and filtered through a 0.2 μm filter unit (Corning).
The protein was purified using two sequential chromatography steps: Heparin sepharose CL-6B and polyU sepharose 4B (Pharmacia). The chromatography buffers were identical to the lysis buffer but contained no lysozyme, deoxyribonuclease I, MgCl2 or protease inhibitor and the NaCl concentration of the buffer was adjusted according to the requirements for charging the protein onto the column. Each column was eluted with a NaCl gradient which varied in length from 5-50 column volumes depending on the column type. After the final chromatography step, the resulting purity of the enzyme is >90% based on SDS-PAGE analysis. The enzyme was aliquoted and stored at −80° C.
Standard HCV NS5B RdRp enzyme assay. HCV RdRp genotype 1b assays were run in a final volume of 60 μl in 96 well plates (Corning 3600). The assay buffer is composed of 20 mM Hepes, pH 7.5, 2.5 mM KCl, 2.5 mM MgCl2, 1 mM DTT, 1.6 U RNAse inhibitor (Promega N2515), 0.01 mg/ml BSA (Sigma B6917), and 2% glycerol. All compounds were serially diluted (3-fold) in DMSO and diluted further in water such that the final concentration of DMSO in the assay was 2%. HCV RdRp genotype 1b enzyme was used at a final concentration of 28 nM. A polyA template was used at 6 nM, and a biotinylated oligo-dT12 primer was used at 180 nM final concentration. Template was obtained commercially (Amersham 27-4110). Biotinylated primer was prepared by Sigma Genosys. 3H-UTP was used at 0.6 μCi (0.29 μM total UTP). Reactions were initiated by the addition of enzyme, incubated at 30° C. for 60 min, and stopped by adding 25 μl of 50 mM EDTA containing SPA beads (4 μg/μl, Amersham RPNQ 0007). Plates were read on a Packard Top Count NXT after >1 hr incubation at room temperature.
Modified HCV NS5B RdRp enzyme assay. A modified enzyme assay was performed essentially as described for the standard enzyme assay except for the following: The biotinylated oligo dT12 primer was precaptured on streptavidin-coated SPA beads by mixing primer and beads in assay buffer and incubating at room temperature for one hour. Unbound primer was removed after centrifugation. The primer-bound beads were resuspended in 20 mM Hepes buffer, pH 7.5 and used in the assay at final concentrations of 20 nM primer and 0.67 μg/μl beads. Order of addition in the assay: enzyme (1.75 nM) was added to diluted compound followed by the addition of a mixture of template (0.36 nM), 3H-UTP (0.6 μCi, 0.29 μM), and primer-bound beads, to initiate the reaction; concentrations given are final. Reactions were allowed to proceed for 4 hours at 30° C.
IC50 values for compounds were determined using seven different [I]. […]

HCV replicon cells = experiment: HCV replicon FRET / luciferase assay; format: cell-based; details: Hepatitis C virus; 50% reduction in FRET or luciferase activity in HCV replicon cells
Description: FRET Assay Preparation. The HCV FRET screening assay was performed in 96-well cell culture plates. The FRET peptide (Anaspec, Inc.) (Taliani et al., Anal. Biochem. 1996, 240, 60-67) contains a fluorescence donor, EDANS, near one end of the peptide and an acceptor, DABCYL, near the other end. The fluorescence of the peptide is quenched by […] resonance energy transfer (RET) between the donor and the acceptor, but as the NS3 protease cleaves the peptide the products are released from RET quenching and the fluorescence of the donor becomes apparent. The assay reagent was made as follows: 5× cell Luciferase cell culture lysis reagent from Promega (#E153A) diluted to 1× with dH2O, NaCl added to 150 mM final, the FRET peptide diluted to 20 μM final from a 2 mM stock.
To prepare plates, HCV replicon cells, with or without a Renilla luciferase reporter gene, were trypsinized and plated in a 96-well plate with titrated test compounds added in columns 3 through 12; columns 1 and 2 contained a control compound (HCV control inhibitor), and the bottom row contained cells with DMSO only. The plates were then placed in a CO2 incubator at 37° C.
Assays. Subsequent to addition of the test compounds described above (FRET Assay Preparation), at various times the plate was removed and Alamar blue solution (Trek Diagnostics, #00-100) was added to measure cellular toxicity. After reading in a Cytoflour 4000 instrument (PE Biosystems), plates were rinsed with PBS and then used for FRET assay by the addition of 30 ul of the FRET peptide assay reagent described above (FRET Assay Preparation) per well. The plate was then placed into the Cytoflour 4000 instrument which had been set to 340 excite/490 emission, automatic mode for up to 20 cycles and the plate read in a kinetic mode. Typically, the signal to noise using an endpoint analysis after the reads was at least three-fold. Alternatively, after Alamar blue reading, plates were rinsed with PBS, then used for luciferase assay using the Promega Dual-Glo Luciferase Assay System or the Promega EnduRen Live Cell Substrate assay.
Compound analysis was performed by quantification of the relative HCV replicon inhibition and the relative cytotoxicity values. To calculate cytoxicity values, the average Alamar Blue fluorescence signals from the control wells were set as 100% non-toxic. The individual signals in each of the compound test wells were then divided by the average control signal and multiplied by 100% to determine […]. To calculate the HCV replicon inhibition values, an average background value was obtained from the two wells containing the highest amount of HCV control inhibitor at the end of the assay period. These numbers were similar to those obtained from naïve Huh-7 cells. The background numbers were then subtracted from the average signal obtained from the control wells and this number was used as 100% activity. The individual signals in each of the compound test wells were then divided by the averaged control values after background subtraction and multiplied by 100% to determine percent activity. EC50 values were calculated as the concentration which caused a 50% reduction in FRET or luciferase activity. The two numbers generated for the compound plate, percent cytoxicity and percent activity, were used to determine compounds of interest for further analysis.

T1 sequence (Q9WMX2 2420-2992): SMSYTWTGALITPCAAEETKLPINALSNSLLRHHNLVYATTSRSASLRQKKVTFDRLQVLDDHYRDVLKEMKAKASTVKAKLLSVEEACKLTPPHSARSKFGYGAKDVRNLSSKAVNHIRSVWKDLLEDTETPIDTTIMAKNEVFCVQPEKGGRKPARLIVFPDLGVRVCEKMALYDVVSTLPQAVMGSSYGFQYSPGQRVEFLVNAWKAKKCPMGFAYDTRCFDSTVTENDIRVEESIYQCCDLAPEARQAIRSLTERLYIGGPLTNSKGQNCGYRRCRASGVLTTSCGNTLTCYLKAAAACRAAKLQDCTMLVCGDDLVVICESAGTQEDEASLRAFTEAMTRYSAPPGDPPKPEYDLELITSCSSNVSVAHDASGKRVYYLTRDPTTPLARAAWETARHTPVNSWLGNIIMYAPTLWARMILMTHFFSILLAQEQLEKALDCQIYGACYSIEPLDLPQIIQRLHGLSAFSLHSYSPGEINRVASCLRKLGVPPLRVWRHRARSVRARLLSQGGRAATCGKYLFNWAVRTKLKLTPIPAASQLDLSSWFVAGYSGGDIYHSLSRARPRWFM

Row | SMILES | IC50 (HCV NS5B) [µM] | EC50 (HCV replicon cells) [µM]
1 | COc1ccc2c(c1)C1CC1(C(=O)N1C3CCC1CN(C)C3)Cn1c-2c(C2CCCCC2)c2ccc(C(=O)NS(=O)(=O)C3(Cc4ccccc4)CC3)cc21 (stereo not drawn) | 0.0042 to 0.5 | 0.0042 to 0.5
2 | COc1ccc2c(c1)C1CC1(C(=O)N1C3CCC1CN(C)C3)Cn1c-2c(C2CCCCC2)c2ccc(C(=O)NS(=O)(=O)C3(C(=O)c4ccccc4)CC3)cc21 (stereo not drawn) | 0.0042 to 0.5 | 0.0042 to 0.5
3 | C=CS(=O)(=O)NC(=O)c1ccc2c(C3CCCCC3)c3n(c2c1)CC1(C(=O)N2C4CCC2CN(C)C4)CC1c1cc(OC)ccc1-3 (stereo not drawn) | 0.0042 to 0.5 | 0.0042 to 0.5
4 | COc1ccc2c(c1)C1CC1(C(=O)N1C3CCC1CN(C)C3)Cn1c-2c(C2CCCCC2)c2ccc(C(=O)NS(=O)(=O)C3([Si](C)(C)C)CC3)cc21 (stereo not drawn) | 0.0042 to 0.5 | 0.0042 to 0.5
5 | COc1ccc2c(c1)C1CC1(C(=O)N1C3CCC1CN(C)C3)Cn1c-2c(C2CCCCC2)c2ccc(C(=O)NS(=O)(=O)c3nc(C(C)(C)C)cs3)cc21 (stereo not drawn) | 0.0042 to 0.5 | 0.0042 to 0.5
6 | COc1ccc2c(c1)C1CC1(C(=O)N1C3CCC1CN(C)C3)Cn1c-2c(C2CCCCC2)c2ccc(C(=O)NS(=O)(=O)c3ccccc3C#N)cc21 (stereo not drawn) | 0.0042 to 0.5 | 0.0042 to 0.5
7 | COc1ccc2c(c1)C1CC1(C(=O)N1C3CCC1CN(C)C3)Cn1c-2c(C2CCCCC2)c2ccc(C(=O)NS(=O)(=O)C3(C)CC3)cc21 (stereo not drawn) | 0.0042 to 0.5 | 0.0042 to 0.5
8 | C=C(C)S(=O)(=O)NC(=O)c1ccc2c(C3CCCCC3)c3n(c2c1)CC1(C(=O)N2C4CCC2CN(C)C4)CC1c1cc(OC)ccc1-3 (stereo not drawn) | 0.0042 to 0.5 | 0.0042 to 0.5
9 | COc1ccc2c(c1)[C@@H]1C[C@]1(C(=O)N1C3CCC1CN(C)C3)Cn1c-2c(C2CCCCC2)c2ccc(C(=O)NS(=O)(=O)CC3CCCO3)cc21 (stereo partly drawn) | 0.0042 to 0.5 | 0.0042 to 0.5
10 | COc1ccc2c(c1)C1CC1(C(=O)N1C3CCC1CN(C)C3)Cn1c-2c(C2CCCCC2)c2ccc(C(=O)NS(=O)(=O)c3cn(C)cn3)cc21 (stereo not drawn) | 0.0042 to 0.5 | 0.0042 to 0.5
11 | COc1ccc2c(c1)C1CC1(C(=O)N1C3CCC1CN(C)C3)Cn1c-2c(C2CCCCC2)c2ccc(C(=O)NS(=O)(=O)Cc3ccccc3)cc21 (stereo not drawn) | 0.0042 to 0.5 | 0.0042 to 0.5
12 | COc1ccc2c(c1)C1CC1(C(=O)N1C3CCC1CN(C)C3)Cn1c-2c(C2CCCCC2)c2ccc(C(=O)NS(=O)(=O)Cc3cc(Cl)cc(Cl)c3)cc21 (stereo not drawn) | 0.0042 to 0.5 | 0.0042 to 0.5
13 | COc1ccc2c(c1)C1CC1(C(=O)N1C3CCC1CN(C)C3)Cn1c-2c(C2CCCCC2)c2ccc(C(=O)NS(=O)(=O)c3sc(C)nc3C)cc21 (stereo not drawn) | 0.0042 to 0.5 | 0.0042 to 0.5
14 | COCCS(=O)(=O)NC(=O)c1ccc2c(C3CCCCC3)c3n(c2c1)C[C@@]1(C(=O)N2C4CCC2CN(C)C4)C[C@H]1c1cc(OC)ccc1-3 | 0.0042 to 0.5 | 0.0042 to 0.5
15 | COc1ccc2c(c1)C1CC1(C(=O)N1C3CCC1CN(C)C3)Cn1c-2c(C2CCCCC2)c2ccc(C(=O)NS(=O)(=O)c3c(C)noc3C)cc21 (stereo not drawn) | 0.0042 to 0.5 | 0.0042 to 0.5
16 | COc1ccc2c(c1)C1CC1(C(=O)N1C3CCC1CN(C)C3)Cn1c-2c(C2CCCCC2)c2ccc(C(=O)NS(=O)(=O)c3ccccc3)cc21 (stereo not drawn) | 0.0042 to 0.5 | 0.0042 to 0.5
17 | COCCS(=O)(=O)NC(=O)c1ccc2c(C3CCCCC3)c3n(c2c1)CC1(C(=O)N2C4CCC2CN(C)C4)CC1c1cc(OC)ccc1-3 (stereo not drawn) | 0.0042 to 0.5 | 0.0042 to 0.5
18 | COc1ccc2c(c1)C1CC1(C(=O)N1C3CCC1CN(C)C3)Cn1c-2c(C2CCCCC2)c2ccc(C(=O)NS(=O)(=O)CC3CCCO3)cc21 (stereo not drawn) | 0.0042 to 0.5 | 0.0042 to 0.5
19 | COc1ccc2c(c1)C1CC1(C(=O)N1C3CCC1CN(C)C3)Cn1c-2c(C2CCCCC2)c2ccc(C(=O)NS(=O)(=O)c3ccc(C)cn3)cc21 (stereo not drawn) | 0.0042 to 0.5 | 0.0042 to 0.5
20 | COc1ccc2c(c1)C1CC1(C(=O)N1C3CCC1CN(C)C3)Cn1c-2c(C2CCCCC2)c2ccc(C(=O)NS(=O)(=O)c3nc[nH]n3)cc21 (stereo not drawn) | 0.0042 to 0.5 | 0.0042 to 0.5
21 | COc1ccc2c(c1)C1CC1(C(=O)N1C3CCC1CN(C)C3)Cn1c-2c(C2CCCCC2)c2ccc(C(=O)NC(C)(C)C(=O)N(C)C)cc21 (stereo not drawn) | 0.0042 to 0.5 | 0.0042 to 0.5
22 | CCC1(S(=O)(=O)NC(=O)c2ccc3c(C4CCCCC4)c4n(c3c2)CC2(C(=O)N3C5CCC3CN(C)C5)CC2c2cc(OC)ccc2-4)CC1 (stereo not drawn) | 0.0042 to 0.5 | 0.0042 to 0.5
23 | COc1ccc2c(c1)C1CC1(C(=O)N1C3CCC1CN(C)C3)Cn1c-2c(C2CCCCC2)c2ccc(C(=O)NS(=O)(=O)C3(C(=O)Nc4ccccc4)CC3)cc21 (stereo not drawn) | 0.0042 to 0.5 | 0.0042 to 0.5
24 | COc1ccc2c(c1)C1CC1(C(=O)N1C3CCC1CN(C)C3)Cn1c-2c(C2CCCCC2)c2ccc(C(=O)NS(=O)(=O)c3ccco3)cc21 (stereo not drawn) | 0.0042 to 0.5 | 0.0042 to 0.5
25 | COc1ccc2c(c1)C1CC1(C(=O)N1C3CCC1CN(C)C3)Cn1c-2c(C2CCCCC2)c2ccc(C(=O)NS(=O)(=O)c3cnccc3Cl)cc21 (stereo not drawn) | 0.0042 to 0.5 | 0.0042 to 0.5
26 | C=CCC1(S(=O)(=O)NC(=O)c2ccc3c(C4CCCCC4)c4n(c3c2)CC2(C(=O)N3C5CCC3CN(C)C5)CC2c2cc(OC)ccc2-4)CC1 (stereo not drawn) | 0.0042 to 0.5 | 0.0042 to 0.5
27 | COc1ccc2c(c1)C1CC1(C(=O)N1C3CCC1CN(C)C3)Cn1c-2c(C2CCCCC2)c2ccc(C(=O)NS(=O)(=O)c3cccc4cccnc34)cc21 (stereo not drawn) | 0.0042 to 0.5 | 0.0042 to 0.5
